# Laboratory results published in patent publication US10787448B2, “Indolizino [3,2-C] quinoline-based fluorescent probe” (SEOUL NATIONAL UNIVERSITY R & DB FOUNDATION, priority 2015, dated 2020).
# Where “and” joins values, the source holds several entries; their conditions need not be identical. Equal entries are not always repeated. Structures can show the parent of a compound that is named as a salt.
# Assay: Analysis of optical characteristics (absorption, fluorescence emission, quantum yield) in solvents
# Format: physicochemical
# Conditions: for peak emission (λmax): aqueous solution (H2O); for Relative fluorescence Emission Intensitynorm: normalized fluorescence intensity; for Relative fluorescence Emission Intensitynorm / Fluorescence Emission Intensity / Peak emission wavelength λmax em(nm): H2O at 2 μM; for Peak emission wavelength λmax em(nm): excited at the longest absorption maxima
# Method: Fluorescence emission spectra were obtained at 20° C. using a JASCO FP-6500 spectrofluorometer, a 10 mM stock solution prepared by dissolving an indolizino[3,2-c]quinoline compound in DMSO was diluted in a solvent. […] Absorption spectra were recorded at room temperature using a Perkin Elmer Lamda 20 UV/VIS spectrometer. […]
# Further, the compounds (excluding Entry #51-57, etc.) of Formula 1 were subjected to spectrum analyses in various solvents, and the results are shown in Tables 6 and 7, and FIGS. 5C and 5D.
smiles,measurement,setting,value
"c1cc(-c2nc3ccccc3c3cc4ccccn4c23)nc(-c2nc3ccccc3c3cc4ccccn4c23)c1 [IQ 5-D, 2,6-bis(indolizino[3,2-c]quinolin-6-yl)pyridine]",λex(nm),Table 6,402 nm and 422 nm
same,peak emission (λmax),,543 nm
"COc1ccc(-c2c3c(cc4ccccn43)c3ccccc3[n+]2C)cc1 [IQ 6-S1-Me, 6-(4-methoxyphenyl)-5-methylindolizino[3,2-c]quinolin-5-ium methyl sulfate]",solvent-dependent (environment-sensitive) tendency of the emission,,hardly showed an environment-sensitive optical characteristic
same,λex(nm),Table 6,458 nm
"COc1ccc(-c2c3c(cc4ccccn43)c3ccccc3[n+]2CCCl)cc1 [IQ 6-S2-Cl, 5-(2-chloroethyl)-6-(4-methoxyphenyl)indolizino[3,2-c]quinolin-5-ium trifluoromethanesulfonate]",solvent-dependent (environment-sensitive) tendency of the emission,,hardly showed an environment-sensitive optical characteristic
same,λex(nm),Table 6,464 nm
"CCCCn1cc(-c2c3c4ccccc4nc(-c4ccc(OC)cc4)c3n3ccccc23)nn1 [IQ 6-T, 12-(1-butyl-1H-1,2,3-triazol-4-yl)-6-(4-methoxyphenyl)indolizino[3,2-c]quinoline]",λex(nm),Table 6,403 nm
"COc1ccc(-c2nc3ccccc3c3c(-c4cn(CCOCCOCCOCCNC(=O)CCCCCC5[C@H]6NC(=O)N[C@H]6C[S+]5[O-])nn4)c4ccccn4c23)cc1 (stereo partly drawn) [IQ 6-T-B, N-(2-(2-(2-(2-(4-(6-(4-methoxyphenyl)indolizino[3,2-c]quinolin-12-yl)-1H-1,2,3-triazol-1-yl)ethoxy)ethoxy)ethoxy)ethyl)-6-((3aS,6aR)-5-oxido-2-oxohexahydro-1H-thieno[3,4-d]imidazol-4-yl)hexanamide]",λex(nm),Table 6,437 nm
"COC(=O)c1c2c3ccccc3nc(-c3ccc[nH]3)c2n2ccccc12 [IQ 21, Methyl 6-(1H-pyrrol-2-yl)indolizino[3,2-c]quinoline-12-carboxylate]",solvent-dependent (environment-sensitive) tendency of the emission,,blue-shift
same,peak emission (λmax),,433 nm
"CCOC(=O)c1c2c3ccccc3nc(-c3ccc([N+](=O)[O-])cc3)c2n2ccccc12 [IQ 26, ethyl 6-(4-nitrophenyl)indolizino[3,2-c]quinoline-12-carboxylate]","fluorescence (intensity, in words)",,did not induce fluorescence
"CCOC(=O)c1c2c3ccccc3nc(-c3cccc(F)c3)c2n2ccccc12 [IQ 28, ethyl 6-(3-fluorophenyl)indolizino[3,2-c]quinoline-12-carboxylate]",solvent-dependent (environment-sensitive) tendency of the emission,,solvatochromic effect
"CCOC(=O)c1c2c3ccccc3nc(-c3ccc(OC)c(OC)c3)c2n2ccccc12 [IQ 30, ethyl 6-(3,4-dimethoxyphenyl)indolizino[3,2-c]quinoline-12-carboxylate]",solvent-dependent (environment-sensitive) tendency of the emission,,solvatochromic effect
"C#Cc1c2c3ccccc3nc(-c3ccc(OC)cc3)c2n2ccccc12 [IQ 55, 12-ethynyl-6-(4-methoxyphenyl)indolizino[3,2-c]quinoline]",solvent-dependent (environment-sensitive) tendency of the emission,,hardly showed an environment-sensitive optical characteristic
"COc1ccc(-c2nc3ccccc3c3cc4cc(C#N)ccn4c23)cc1 [IQ 67, 6-(4-methoxyphenyl)indolizino[3,2-c]quinoline-10-carbonitrile]","fluorescence (intensity, in words)",,further high fluorescence intensity in an aqueous solution
"COc1ccc(-c2nc3ccccc3c3cc4c5ccccc5ccn4c23)cc1 [IQ 77, 6-(4-methoxyphenyl)benzo[7,8]indolizino[3,2-c]quinoline]","fluorescence (intensity, in words)",,very high fluorescence intensity at a blue wavelength in EtOH and DMSO
"CCc1nc2ccccc2c2cc3c4ccccc4ccn3c12 [IQ 79, 6-ethylbenzo[7,8]indolizino[3,2-c]quinoline]","fluorescence (intensity, in words)",,very high fluorescence intensity at a blue wavelength in EtOH and DMSO
"Nc1ccc(-c2nc3ccccc3c3cc4ccccn4c23)cc1 [IQ-B1, 4-(indolizino[3,2-c]quinolin-6-yl)aniline]",solvent-dependent (environment-sensitive) tendency of the emission,,"high solvent-dependent (i.e., environment-sensitive) tendency"
"Oc1ccc(-c2nc3ccccc3c3cc4ccccn4c23)cc1 [IQ-B2, 4-(indolizino[3,2-c]quinolin-6-yl)phenol]",solvent-dependent (environment-sensitive) tendency of the emission,,"high solvent-dependent (i.e., environment-sensitive) tendency"
"C(=C\c1nc2ccccc2c2cc3ccccn3c12)/c1ccccc1 [IQ-B4, (E)-6-styrylindolizino[3,2-c]quinoline]",λex(nm),Table 7,415 nm
"COc1ccc(-c2nc3ccccc3c3cc4cc(C=O)ccn4c23)cc1 [IQ-B11, 6-(4-methoxyphenyl)indolizino[3,2-c]quinoline-10-carbaldehyde]",λex(nm),Table 7,427 nm
same,maximum wavelength of fluorescence,Tris buffer (pH 7.5),531 nm
"COc1ccc(/C=C/c2nc3ccccc3c3cc4ccccn4c23)cc1 [IQ-B12, (E)-6-(4-methoxystyryl)indolizino[3,2-c]quinoline]",Abs maximum λ for UV,,344 nm
same,Stokes shift,,≥ 180 nm
"CN(/N=C/c1nc2ccccc2c2cc3ccccn3c12)c1ccccc1 [IQ-B16, (E)-6-((2-methyl-2-phenylhydrazineylidene)methyl)indolizino[3,2-c]quinoline]",λex(nm),Table 7,422 nm
"COc1ccc(-c2nc3ccccc3c3cc4cc(/C=C/n5ccnc5)ccn4c23)cc1 [IQ-B20, (E)-10-(2-(1H-imidazol-1-yl)vinyl)-6-(4-methoxyphenyl)indolizino[3,2-c]quinoline]","fluorescence (intensity, in words)",,high fluorescence in other solvents as well as an aqueous solution
"COc1ccc(-c2nc3ccccc3c3cc4cc(-c5ccc(C=O)cc5)ccn4c23)cc1 [IQ-B23, 4-(6-(4-methoxyphenyl)indolizino[3,2-c]quinolin-10-yl)benzaldehyde]","fluorescence (intensity, in words)",,high fluorescence in DMSO
same,λex(nm),Table 7,434 nm
"COc1ccc(-c2nc3ccccc3c3cc4cc(/C=C/C=O)ccn4c23)cc1 [IQ-B25, (E)-3-(6-(4-methoxyphenyl)indolizino[3,2-c]quinolin-10-yl)acrylaldehyde]","fluorescence (intensity, in words)",,high fluorescence in DMSO
same,λex(nm),Table 7,444 nm
"COc1ccc(-c2nc3ccccc3c3cc4cc(-c5ccc(C(=O)Nc6ccccc6)cc5)ccn4c23)cc1 [IQ-B35, 4-(6-(4-methoxyphenyl)indolizino[3,2-c]quinolin-10-yl)-N-phenylbenzamide]",λex(nm),Table 7,427 nm
"CCN(CC)C(=O)c1ccc(-c2ccn3c(c2)cc2c4ccccc4nc(-c4ccc(OC)cc4)c23)cc1 [IQ-B36, N,N-diethyl-4-(6-(4-methoxyphenyl)indolizino[3,2-c]quinolin-10-yl)benzamide]",λex(nm),Table 7,422 nm
"COc1ccc(-c2nc3ccccc3c3cc4cc(-c5ccc6ccccc6c5)ccn4c23)cc1 [IQ-B39, 6-(4-methoxyphenyl)-10-(naphthalen-2-yl)indolizino[3,2-c]quinoline]",λex(nm),Table 7,423 nm
"COc1ccc(-c2nc3ccccc3c3cc4cc(-c5ccc(C#N)cc5)ccn4c23)cc1 [IQ-B43, 4-(6-(4-methoxyphenyl)indolizino[3,2-c]quinolin-10-yl)benzonitrile]",λex(nm),Table 7,431 nm
"COc1ccc(-c2nc3ccccc3c3cc4cc(/C=C/C#N)ccn4c23)cc1 [IQ-B44, (E)-3-(6-(4-methoxyphenyl)indolizino[3,2-c]quinolin-10-yl)acrylonitrile]",λex(nm),Table 7,436 nm
O=[N+]([O-])c1ccc(-c2nc3ccccc3c3cc4ccccn4c23)cc1 [compound 2],quantum yield (Φ),"DW, standard Rhodamine 6G",0.000
same,quantum yield (Φ),"EtOH, standard Coumarin 153",0.000
same,Relative fluorescence Emission Intensitynorm,,0.00
c1ccc(-c2nc3ccccc3c3cc4ccccn4c23)nc1 [compound 5],Maximum absorption wavelength λmax abs(nm),,400 nm
same,quantum yield (Φ),"DW, standard Rhodamine 6G",0.005
same,quantum yield (Φ),"EtOH, standard Coumarin 153",0.196
same,Fluorescence Emission Intensity,,4.7
same,Peak emission wavelength λmax em(nm),,532 nm
same,Relative fluorescence Emission Intensitynorm,,0.02
COc1cc(OC)cc(-c2nc3ccccc3c3cc4ccccn4c23)c1 [compound 7],quantum yield (Φ),"DW, standard Rhodamine 6G",0.026
same,quantum yield (Φ),"EtOH, standard Coumarin 153",0.756
same,Fluorescence Emission Intensity,,60.8
same,Peak emission wavelength λmax em(nm),,527.5 nm
same,Relative fluorescence Emission Intensitynorm,,0.26
Clc1ccc(-c2nc3ccccc3c3cc4ccccn4c23)s1 [compound 11],Maximum absorption wavelength λmax abs(nm),,407 nm
same,quantum yield (Φ),"DW, standard Rhodamine 6G",0.006
same,quantum yield (Φ),"EtOH, standard Coumarin 153",0.111
same,Fluorescence Emission Intensity,,7.5
same,Peak emission wavelength λmax em(nm),,536 nm
same,Relative fluorescence Emission Intensitynorm,,0.03
Cc1cccn2c1cc1c3ccccc3nc(-c3ccc(Br)cc3)c12 [compound 12],Maximum absorption wavelength λmax abs(nm),,395 nm
same,quantum yield (Φ),"DW, standard Rhodamine 6G",0.131
same,quantum yield (Φ),"EtOH, standard Coumarin 153",0.623
same,Fluorescence Emission Intensity,,11.8
same,Peak emission wavelength λmax em(nm),,531.5 nm
same,Relative fluorescence Emission Intensitynorm,,0.05
Cc1cccn2c1cc1c3ccccc3nc(-c3ccc([N+](=O)[O-])cc3)c12 [compound 13],quantum yield (Φ),"DW, standard Rhodamine 6G",0.000
same,quantum yield (Φ),"EtOH, standard Coumarin 153",0.000
same,Relative fluorescence Emission Intensitynorm,,0.00
